Source: the supplement of paper PMC10307832

Legend:
Assay in all cases: relative viability (nuclei count vs DMSO), 5 days (fraction); higher = more cells survive
[1] = compound: CCn1c(-c2nonc2N)nc2c(C#CC(C)(C)O)ncc(OC[C@H]3CCCNC3)c21 + Cc1nc(NC(=O)N2CCC[C@H]2C(N)=O)sc1-c1ccnc(C(C)(C)C(F)(F)F)c1 [Alpelisib] (partner 2 µM)
Method in brief: (§1)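 Each reported value is a median over duplicate plates. It expresses relative viability: treated-well nuclei count divided by vehicle-well nuclei count. Lung cancer cell lines in 1536-well plates were dosed by pin tool a day after seeding, alone with one drug or with a fixed anchor-drug dose plus five library-drug doses (not always all listed) in √10 steps, and nuclei were counted after 5 days.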

[2] = compound: CCn1c(-c2nonc2N)nc2c(C#CC(C)(C)O)ncc(OC[C@H]3CCCNC3)c21 + O=C(CCCCCCC(=O)Nc1ccccc1)NO [Vorinostat] (partner 1 µM)
Method in brief: as §1

[3] = compound: CCOC1=CC=CC=C1N=NC2=C(NN(C2=O)C3=NC(=CS3)C4=CC=CC=C4)C [BAM7] + Cc1nc(Nc2ncc(C(=O)Nc3c(C)cccc3Cl)s2)cc(N2CCN(CCO)CC2)n1 [Dasatinib] (partner 0.075 µM)
Method in brief: as §1

[4] = compound: CCn1c(-c2nonc2N)nc2c(C#CC(C)(C)O)ncc(OC[C@H]3CCCNC3)c21 + COc1cccc2cc(-c3nc([C@H]4CC[C@H](C(=O)O)CC4)n4ncnc(N)c34)[nH]c12 [OSI-027] (partner 0.5 µM)
Method in brief: as §1

| Cell Line | relative viability ([1]; first compound 0.01 µM) | relative viability ([1]; first compound 0.03162 µM) | relative viability ([1]; first compound 0.1 µM) | relative viability ([1]; first compound 0.3162 µM) | relative viability ([1]; first compound 1 µM) | relative viability ([2]; first compound 0.01 µM) | relative viability ([2]; first compound 0.03162 µM) | relative viability ([2]; first compound 0.1 µM) | relative viability ([2]; first compound 0.3162 µM) | relative viability ([2]; first compound 1 µM) | relative viability ([3]; first compound 0.5 µM) | relative viability ([3]; first compound 5 µM) | relative viability ([3]; first compound 15.81 µM) | relative viability ([3]; first compound 50 µM) | relative viability ([4]; first compound 0.01 µM) | relative viability ([4]; first compound 0.03162 µM) | relative viability ([4]; first compound 0.1 µM) | relative viability ([4]; first compound 0.3162 µM) | relative viability ([4]; first compound 1 µM) |
| --- | --- | --- | --- | --- | --- | --- | --- | --- | --- | --- | --- | --- | --- | --- | --- | --- | --- | --- | --- |
| NCI-H358 | 0.896 | 0.784 | 0.787 | 0.687 | 0.701 | 0.766 | 0.691 | 0.787 | 0.629 | 0.662 | 0.202 | 0.217 | 0.197 | 0.254 | 0.723 | 0.822 | 0.692 | 0.445 | 0.373 |
| EPLC-272H | 0.962 | 1.02 | 0.989 | 0.858 | 0.956 | 0.507 | 0.426 | 0.573 | 0.393 | 0.571 | 0.369 | – | 0.346 | 0.434 | 0.303 | 0.261 | 0.262 | 0.314 | 0.264 |
| NCI-H1395 | 0.986 | 1.35 | 1.01 | 0.79 | 0.76 | 0.575 | 0.517 | 0.597 | 0.525 | 0.52 | 0.41 | 0.445 | 0.357 | 0.465 | 0.496 | 0.597 | 0.552 | 0.556 | 0.555 |
| NCI-H2126 | 0.72 | 0.793 | 0.74 | 0.746 | 0.753 | 0.754 | 0.743 | 0.791 | 0.741 | 0.792 | 0.584 | 0.484 | 0.436 | 0.526 | 0.749 | 0.69 | 0.675 | 0.624 | 0.677 |
| LXF-289 | 1.04 | 1.02 | 1.01 | 0.983 | 1.04 | 0.822 | 0.791 | 0.737 | 0.737 | 0.808 | 0.276 | 0.235 | 0.256 | 0.253 | 0.778 | 0.779 | 0.808 | 0.759 | 0.804 |
| NCI-H2009 | 1.15 | 1.19 | 1.22 | 1.17 | 1.18 | 0.726 | 0.708 | 0.788 | 0.706 | 0.821 | 0.291 | 0.283 | 0.265 | 0.275 | 0.577 | 0.658 | 0.578 | 0.569 | 0.584 |
| NCI-H2405 | 0.839 | 0.782 | – | 0.749 | 0.855 | 0.811 | 0.838 | 0.913 | 0.854 | 1.06 | 0.195 | 0.201 | 0.211 | 0.243 | 0.646 | 0.647 | 0.597 | 0.612 | 0.612 |
| NCI-H1755 | 0.943 | 0.944 | 0.896 | 0.916 | 0.981 | 0.725 | 0.66 | 0.637 | 0.762 | 0.841 | 0.432 | 0.466 | 0.419 | 0.458 | 0.704 | 0.697 | 0.704 | 0.69 | 0.638 |
| HCC-78 | 0.306 | 0.372 | 0.351 | 0.307 | 0.356 | 0.434 | 0.452 | 0.455 | 0.416 | 0.436 | 0.502 | 0.276 | 0.424 | 0.306 | 0.405 | 0.386 | 0.325 | 0.331 | 0.341 |
| LOU-NH91 | 0.751 | 0.795 | 0.736 | 0.706 | 0.732 | 0.899 | 0.828 | 1 | 0.767 | 0.794 | 0.495 | 0.658 | 0.535 | 0.552 | 0.718 | 0.694 | 0.706 | 0.625 | 0.594 |
| NCI-H3122 | 0.869 | 0.71 | 0.795 | 0.798 | 0.756 | 1.07 | 1.01 | 1.05 | 1.06 | 0.994 | 0.438 | 0.835 | 0.838 | 0.725 | 0.875 | 0.913 | 0.791 | 0.317 | 0.4 |
| HCC-827 | 1.01 | 0.93 | 0.948 | 1 | 1.05 | 0.86 | 0.866 | 0.831 | 0.76 | 0.834 | 0.29 | 0.234 | 0.313 | 0.264 | 0.74 | 0.769 | 0.698 | 0.639 | 0.667 |
| SK-LU-1 | 1.08 | 1.26 | 0.968 | 1 | 1.13 | 0.767 | 0.781 | 0.78 | 0.677 | 0.767 | 0.172 | 0.18 | 0.191 | 0.168 | 0.387 | 0.365 | 0.318 | 0.29 | 0.343 |
| NCI-H1975 | 0.716 | 0.656 | 0.623 | 0.543 | 0.583 | 0.705 | 0.72 | 0.717 | 0.631 | 0.684 | 0.309 | 0.341 | 0.3 | 0.296 | 0.747 | 0.824 | 0.616 | 0.57 | 0.6 |
| NCI-H1651 | 1.01 | 0.879 | 0.937 | 0.917 | 1.19 | 0.553 | 0.606 | 0.613 | 0.52 | 0.632 | 0.297 | 0.372 | 0.477 | 0.456 | 0.719 | 0.676 | 0.723 | 0.563 | 0.9 |
| NCI-H441 | 0.653 | 0.891 | 0.749 | 0.683 | 0.717 | 0.786 | 0.85 | 0.937 | 0.614 | 0.663 | 0.607 | 0.583 | 0.71 | 0.724 | 0.675 | 0.67 | 0.466 | 0.469 | 0.437 |
| LCLC-103H | 0.984 | 0.945 | 1 | 0.848 | 0.953 | 0.87 | 0.752 | 0.725 | 0.757 | 0.81 | 0.46 | 0.512 | 0.523 | 0.523 | 0.463 | 0.477 | 0.481 | 0.425 | 0.356 |
